Test systems include HCC-2998 colon; HCT-116 colon; EKVX NSCLC; BT-549 breast; M14 melanoma; UACC-257 melanoma; A549 NSCLC; RPMI-8226 leukemia; NCI-H522 lung; HL-60(TB) leukemia.
Assay in all cases: inhibition of tumour cell growth, NCI panel, 48 h

Among the data in PubChem BioAssay (NCI) are GI50 and TGI values, retold here.

Values joined by “and” are separate entries in the source; they are usually repeats but may differ in a detail not shown here. Identical values can stand only once.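 Protocol summary: plate cells (96-well), add compound at 5 concentrations, incubate 48 h, interpolate endpoints linearly. Here, GI50 denotes the concentration required for 50% inhibition of growth. TGI is the concentration that stops growth completely.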

Take `COC1/C=C/C(C)C(C(C)C(OC)C(C)CCC(=O)C(C)C(C/C=C/N(C)C=O)OC)OC(=O)/C=C/C=C(\C)CC(OC)CC2=CC(=O)O[C@H](C2)C(C)C(OC)CC(OC)/C=C/C(C)C(OC)C1` (some centres undefined): the GI50 in the assay with HCC-2998 colon is 0.0046 µM; in the assay on HCT-116 colon, 0.0066 µM; with EKVX NSCLC it was 0.123 µM; in the assay with BT-549 breast it was 0.108 µM; with M14 melanoma it was 0.0215 µM; in the assay on A549 NSCLC it was 0.0185 µM. Also, the TGI with HCT-116 colon was 0.115 µM and 0.0148 µM; with EKVX NSCLC, 0.869 µM and 0.362 µM; in the assay with M14 melanoma it was 0.0686 µM; in the assay on UACC-257 melanoma it was 0.0257 µM; in the assay with A549 NSCLC, 0.271 µM and 0.284 µM; with RPMI-8226 leukemia it was 0.0194 µM.
Take `O=C(O/C(=C(/N=Nc1ccccc1)c1ccccc1)c1ccccc1)c1ccccc1`: the TGI in the assay on HCC-2998 colon, in the assay on HCT-116 colon, in the assay with EKVX NSCLC, in the assay with UACC-257 melanoma, in the assay with A549 NSCLC and in the assay on NCI-H522 lung was more than 100 µM throughout. The compound also gave a TGI with RPMI-8226 leukemia of more than 100 µM.
With `O=c1[nH]nc2ccccc2c1Cc1ccccc1`, the TGI in the assay on HCC-2998 colon, with HCT-116 colon, in the assay with EKVX NSCLC, with M14 melanoma, in the assay on UACC-257 melanoma and in the assay with A549 NSCLC was more than 100 µM each time. In addition, the TGI with RPMI-8226 leukemia is more than 100 µM.
As to `N.N.N.N.N.[Cl-].[Co+3].c1ccc(-c2nn[n-]n2)cc1`, the GI50 with HCC-2998 colon, with HCT-116 colon, with EKVX NSCLC, in the assay on HL-60(TB) leukemia, with M14 melanoma and in the assay with UACC-257 melanoma was more than 100 µM throughout. Also, the GI50 in the assay on A549 NSCLC and in the assay on RPMI-8226 leukemia was more than 100 µM throughout. Also, the TGI in the assay with HCC-2998 colon, with HCT-116 colon, in the assay with EKVX NSCLC, with HL-60(TB) leukemia, with M14 melanoma and with UACC-257 melanoma was more than 100 µM in each case. The TGI with A549 NSCLC and with RPMI-8226 leukemia was more than 100 µM each time.
Consider `O=C(CC(=O)C1=CNc2ccccc2S1)C(=O)Nc1ccc(Cl)cc1`, for which the TGI in the assay on HCC-2998 colon was more than 50 µM; in the assay on HCT-116 colon it was more than 50 µM; in the assay on EKVX NSCLC it was more than 50 µM; in the assay on HL-60(TB) leukemia, 49.6 µM; in the assay with M14 melanoma, more than 50 µM; with UACC-257 melanoma, more than 50 µM. The TGI in the assay on A549 NSCLC, in the assay with NCI-H522 lung and in the assay with RPMI-8226 leukemia was more than 50 µM throughout.
With `Clc1ccc(N=Nc2nc3ccccc3nc2N=Nc2ccc(Cl)cc2Cl)c(Cl)c1`, the TGI in the assay on HCC-2998 colon was more than 100 µM; in the assay with HCT-116 colon, more than 100 µM; in the assay with EKVX NSCLC, more than 100 µM; in the assay on HL-60(TB) leukemia it was 90 µM; in the assay on UACC-257 melanoma it was more than 100 µM; in the assay on A549 NSCLC it was more than 100 µM. The TGI in the assay with NCI-H522 lung and in the assay with RPMI-8226 leukemia was more than 100 µM throughout.
On to `O=C1Nc2nc3ccccc3n2N=C2CCCC12` (centres undefined), for which the TGI in the assay on HCC-2998 colon, in the assay with HCT-116 colon, in the assay with EKVX NSCLC, with M14 melanoma, in the assay on UACC-257 melanoma and in the assay with A549 NSCLC was more than 100 µM each time. This compound also returned a TGI in the assay with RPMI-8226 leukemia of more than 100 µM.
For the compound `COCC(O)Cn1ccnc1[N+](=O)[O-]` (centres undefined), the TGI with HCC-2998 colon, in the assay on HCT-116 colon, in the assay on EKVX NSCLC, in the assay with HL-60(TB) leukemia, with M14 melanoma and with UACC-257 melanoma was more than 100 µM in each case. Besides, the TGI in the assay with A549 NSCLC, with NCI-H522 lung and in the assay on RPMI-8226 leukemia was more than 100 µM each time.
As to `CCOC1=C2C(=O)OC(=O)C2C2CCCCC2=C1` (centres undefined), the TGI in the assay on HCC-2998 colon, in the assay on HCT-116 colon, in the assay on EKVX NSCLC, in the assay with HL-60(TB) leukemia, with M14 melanoma and in the assay with UACC-257 melanoma was more than 100 µM in each case. Further, the TGI in the assay with A549 NSCLC, with NCI-H522 lung and in the assay on RPMI-8226 leukemia was more than 100 µM throughout.
For the compound `CCn1cc(C(=O)N/N=C/c2ccccc2)c(=O)c2cc(F)c(N3CCNC(C)C3)c(F)c21` (centres undefined), the GI50 in the assay on HCC-2998 colon is 1.8 µM; with EKVX NSCLC, 1.68 µM; with BT-549 breast, 1.6 µM; in the assay on M14 melanoma, 1.78 µM. The TGI in the assay with HCC-2998 colon was 3.32 µM; in the assay on EKVX NSCLC it was 3.09 µM; in the assay with BT-549 breast, 3 µM; in the assay with M14 melanoma, 3.26 µM.
Regarding `C1COCCN1.C1COCCN1.NC1CCCCC1N.[Cl-].[Pt+2]` (centres undefined), the GI50 in the assay with HCC-2998 colon, in the assay with HCT-116 colon, with EKVX NSCLC, with HL-60(TB) leukemia, in the assay on M14 melanoma and with UACC-257 melanoma was more than 100 µM each time. Further, the GI50 is more than 100 µM in the assay with A549 NSCLC, 46.5 µM in the assay with NCI-H522 lung and more than 100 µM in the assay with RPMI-8226 leukemia. Moreover, the TGI in the assay with HCC-2998 colon, in the assay on HCT-116 colon, in the assay on EKVX NSCLC, in the assay on HL-60(TB) leukemia, in the assay on M14 melanoma and with UACC-257 melanoma was more than 100 µM throughout. Moreover, the TGI in the assay with A549 NSCLC, in the assay on NCI-H522 lung and in the assay with RPMI-8226 leukemia was more than 100 µM each time.
Take `Cc1oc2c(C)c3oc(=O)cc(C)c3cc2c1CN1C(=O)C2OCCOCCOCCOCCOCCO[C@H]2C1=O` (some centres undefined): the TGI in the assay on HCC-2998 colon, in the assay with HCT-116 colon, in the assay on EKVX NSCLC, with HL-60(TB) leukemia, in the assay with M14 melanoma and in the assay on UACC-257 melanoma was more than 100 µM throughout. For the same compound, the TGI in the assay with A549 NSCLC, with NCI-H522 lung and in the assay with RPMI-8226 leukemia was more than 100 µM in each case.
Consider `Cc1cc2c(C)nn(Cc3ccccc3)c2c(C(N)=O)c1C`, for which the TGI in the assay on HCC-2998 colon, in the assay with HCT-116 colon, with EKVX NSCLC, in the assay on M14 melanoma, with UACC-257 melanoma and in the assay with A549 NSCLC was more than 100 µM in each case. Besides, the TGI in the assay with NCI-H522 lung and in the assay on RPMI-8226 leukemia was more than 100 µM each time.
In the case of `OCC1C(/C=C/c2ccoc2)ON2CCCC12` (centres undefined), the TGI in the assay on HCC-2998 colon, in the assay with EKVX NSCLC, in the assay with HL-60(TB) leukemia, in the assay with M14 melanoma, in the assay with UACC-257 melanoma and with A549 NSCLC was more than 100 µM in each case. For the same compound, the TGI with NCI-H522 lung is more than 100 µM.
